Results published in ChEMBL document CHEMBL1201862, “PubChem BioAssay data set” (2004).
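Each compound was tested at five concentrations against cells in 96-well plates for 48 hours. GI50 = concentration required for 50% inhibition of growth.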 Activity calls are given as the source filed them. Cut-off read from the data, not from the text of the source: active = GI50 up to about 1.1 µM and inactive = higher.

Tests used:
Assay in all cases: NCI-60 cell line screen, 48 h
[1] = tested on: U-251
[2] = tested on: SK-MEL-2
[3] = tested on: MDA-MB-231
[4] = tested on: NCI-H460
[5] = tested on: OVCAR-5
[6] = tested on: EKVX
[7] = tested on: HCC 2998
[8] = tested on: NCI-H226
[9] = tested on: BT-549
[10] = tested on: MDA-MB-435
[11] = tested on: HT-29
[12] = tested on: SW-620
[13] = tested on: SNB-19
[14] = tested on: SK-MEL-5
[15] = tested on: UACC-257
[16] = tested on: HOP-62
[17] = tested on: A549
[18] = tested on: PC-3
[19] = tested on: COLO 205
[20] = tested on: RXF 393

SMILES | GI50 [1] | GI50 [2] | GI50 [3] | GI50 [4] | GI50 [5] | GI50 [6] | GI50 [7] | GI50 [8] | GI50 [9] | GI50 [10] | GI50 [11] | GI50 [12] | GI50 [13] | GI50 [14] | GI50 [15] | GI50 [16] | GI50 [17] | GI50 [18] | GI50 [19] | GI50 [20]
COc1cc2nc(-c3cccs3)nc(N3CCN(c4ccccc4C(F)(F)F)CC3)c2cc1OC | > 100 µM (inactive) | > 100 µM (inactive) | > 100 µM (inactive) | > 100 µM (inactive) | > 100 µM (inactive) | 53.7 µM (inactive) | > 100 µM (inactive) | > 100 µM (inactive) | > 100 µM (inactive) | 52.8 µM (inactive) | > 100 µM (inactive) | > 100 µM (inactive) | > 100 µM (inactive) | 33.3 µM (inactive) | > 100 µM (inactive) | > 100 µM (inactive) | > 100 µM (inactive) | 79.3 µM (inactive) | > 100 µM (inactive) | 
CC(=O)NC1C(OCc2ccccc2)OC(CO)C(O)C1OCC(=O)NC(C)C(=O)NC(CCC(=O)NCCCCNc1ccc([N+](=O)[O-])c2[nH]c3ccccc3c(=O)c12)C(N)=O (centres undefined) | 79.1 µM (inactive) | > 100 µM (inactive) | > 100 µM (inactive) | 68.5 µM (inactive) | > 100 µM (inactive) | 88.5 µM (inactive) | > 100 µM (inactive) | 66.1 µM (inactive) | 30.1 µM (inactive) | > 100 µM (inactive) | 69.3 µM (inactive) | > 100 µM (inactive) | 36.7 µM (inactive) |  |  | > 100 µM (inactive) | 50.1 µM (inactive) | > 100 µM (inactive) | > 100 µM (inactive) | 
CN(C(=O)CC(=O)CP(=O)(c1ccccc1)c1ccccc1)c1ccccc1 | > 100 µM (inactive) |  | > 100 µM (inactive) | > 100 µM (inactive) |  | > 100 µM (inactive) | > 100 µM (inactive) | > 100 µM (inactive) | > 100 µM (inactive) | > 100 µM (inactive) | > 100 µM (inactive) | > 100 µM (inactive) | > 100 µM (inactive) | > 100 µM (inactive) | > 100 µM (inactive) | > 100 µM (inactive) | > 100 µM (inactive) | > 100 µM (inactive) | > 100 µM (inactive) | > 100 µM (inactive)
CCCCNC(=O)c1cc2c(cc1Cl)Sc1nccn1S2(=O)=O | 54.8 µM (inactive) | 70 µM (inactive) | > 100 µM (inactive) | 44.3 µM (inactive) | > 100 µM (inactive) | 70.8 µM (inactive) | > 100 µM (inactive) |  | 78 µM (inactive) | 87.1 µM (inactive) | > 100 µM (inactive) | > 100 µM (inactive) | > 100 µM (inactive) | 0.0116 µM (active) | > 100 µM (inactive) | 24.3 µM (inactive) | > 100 µM (inactive) | 55.2 µM (inactive) | 60.7 µM (inactive) | 95.9 µM (inactive)
COC(=O)C1CCC(=O)N1C(c1ccc2c(c1)OCO2)c1ccc2c(c1)OCO2 (centres undefined) | > 100 µM (inactive) | > 100 µM (inactive) | > 100 µM (inactive) | > 100 µM (inactive) | > 100 µM (inactive) | > 100 µM (inactive) | > 100 µM (inactive) | > 100 µM (inactive) | > 100 µM (inactive) | > 100 µM (inactive) | > 100 µM (inactive) | > 100 µM (inactive) | > 100 µM (inactive) | > 100 µM (inactive) | > 100 µM (inactive) | > 100 µM (inactive) | > 100 µM (inactive) | > 100 µM (inactive) | > 100 µM (inactive) | 
O=c1c(Sc2c(SCSc3cnc4ccccc4c3Sc3c[nH]c4ccccc4c3=O)cnc3ccccc23)c[nH]c2ccccc12 | 25.5 µM (inactive) | > 10 µM (inactive) | 34.9 µM (inactive) | > 100 µM (inactive) | > 100 µM (inactive) | > 100 µM (inactive) | > 100 µM (inactive) |  | > 100 µM (inactive) | 31.1 µM (inactive) | > 100 µM (inactive) | 44.7 µM (inactive) | 46.6 µM (inactive) | 39.6 µM (inactive) | > 100 µM (inactive) | 94.2 µM (inactive) | > 10 µM (inactive) | > 10 µM (inactive) | > 100 µM (inactive) | 
Cn1cc(NC(=O)Nc2cc(C(=O)Nc3cc(C(=O)Nc4ccc(S(=O)(=O)O)c5cc(S(=O)(=O)O)ccc45)n(C)c3)n(C)c2)cc1C(=O)Nc1cc(C(=O)Nc2ccc(S(=O)(=O)O)c3cc(S(=O)(=O)O)ccc23)n(C)c1 | > 100 µM (inactive) |  | > 100 µM (inactive) | > 100 µM (inactive) | > 100 µM (inactive) | 34 µM (inactive) | > 100 µM (inactive) | > 100 µM (inactive) | > 100 µM (inactive) | > 100 µM (inactive) | > 100 µM (inactive) | > 100 µM (inactive) | > 100 µM (inactive) | > 100 µM (inactive) | > 100 µM (inactive) | > 100 µM (inactive) | 85.7 µM (inactive) | > 100 µM (inactive) | > 100 µM (inactive) | > 100 µM (inactive)
CN(Cc1cnc2nc(N)nc(N)c2n1)c1ccc(C(=O)NCS(=O)(=O)O)cc1 | > 100 µM (inactive) | > 100 µM (inactive) | > 100 µM (inactive) | 92.7 µM (inactive) | > 100 µM (inactive) | > 100 µM (inactive) | > 100 µM (inactive) | > 100 µM (inactive) | > 100 µM (inactive) | 91.2 µM (inactive) | > 100 µM (inactive) | 78.5 µM (inactive) | > 100 µM (inactive) | > 100 µM (inactive) | > 100 µM (inactive) | > 100 µM (inactive) | 95.7 µM (inactive) | 48.1 µM (inactive) | > 100 µM (inactive) | 
CN1CC2CC(C1)c1cccc(=O)n1C2 (centres undefined) | > 100 µM (inactive) | > 100 µM (inactive) | > 100 µM (inactive) | > 100 µM (inactive) | > 100 µM (inactive) | > 100 µM (inactive) | 0.253 µM (active) |  | > 100 µM (inactive) | > 100 µM (inactive) | > 100 µM (inactive) |  | > 100 µM (inactive) | > 100 µM (inactive) | > 100 µM (inactive) | > 100 µM (inactive) | > 100 µM (inactive) | > 100 µM (inactive) | > 100 µM (inactive) | > 100 µM (inactive)
Cc1cn([C@H]2C=C[C@@H](CO)O2)c(=O)[nH]c1=O [STAVUDINE] | > 1000 µM (inactive) | > 1000 µM (inactive) | > 1000 µM (inactive) |  | > 1000 µM (inactive) | > 1000 µM (inactive) | > 1000 µM (inactive) | > 1000 µM (inactive) | 327 µM (inactive) | > 1000 µM (inactive) | > 1000 µM (inactive) | 418 µM (inactive) | > 1000 µM (inactive) | > 1000 µM (inactive) | > 1000 µM (inactive) | > 1000 µM (inactive) | > 1000 µM (inactive) | > 1000 µM (inactive) | 410 µM (inactive) | 
